According to PubChem BioAssay (NCI):
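Exposure lasted 48 hours, with cells grown in 96-well plates and compounds tested at five concentrations. At the TGI there is no net growth.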

Experiments:
Test in all cases: NCI-60 cell line screen, 48 h
[1] = system: 786-0 renal
[2] = system: A549 NSCLC
[3] = system: BT-549 breast
[4] = system: CAKI-1 renal
[5] = system: CCRF-CEM leukemia
[6] = system: COLO 205 colon
[7] = system: EKVX NSCLC
[8] = system: HCC-2998 colon
[9] = system: HCT-116 colon
[10] = system: HCT-15 colon
[11] = system: HL-60(TB) leukemia
[12] = system: HOP-92 NSCLC
[13] = system: HS 578T breast
[14] = system: HT29 colon
[15] = system: IGROV1 ovarian
[16] = system: K-562 leukemia
[17] = system: KM12 colon
[18] = system: LOX IMVI melanoma
[19] = system: M14 melanoma
[20] = system: MCF7 breast
[21] = system: MDA-MB-231 breast
[22] = system: MDA-MB-435
[23] = system: MDA-N
[24] = system: MOLT-4 leukemia
[25] = system: NCI-H226 lung
[26] = system: NCI-H23 lung
[27] = system: NCI-H460 lung
[28] = system: NCI-H522 lung
[29] = system: NCI/ADR-RES ovarian
[30] = system: OVCAR-3 ovarian
[31] = system: OVCAR-4 ovarian
[32] = system: OVCAR-5 ovarian
[33] = system: OVCAR-8 ovarian
[34] = system: PC-3 prostate
[35] = system: RPMI-8226 leukemia
[36] = system: SF-268 CNS
[37] = system: SF-295 CNS
[38] = system: SF-539 CNS
[39] = system: SK-MEL-2 melanoma
[40] = system: SK-MEL-28 melanoma
[41] = system: SK-MEL-5 melanoma
[42] = system: SN12C renal
[43] = system: SNB-19 CNS
[44] = system: SW-620 colon
[45] = system: TK-10 renal
[46] = system: U251 CNS
[47] = system: UACC-257 melanoma
[48] = system: UO-31 renal
[49] = system: ACHN renal
[50] = system: DU-145 prostate
[51] = system: HOP-62 NSCLC
[52] = system: MALME-3M melanoma
[53] = system: RXF 393 renal
[54] = system: SK-OV-3 ovarian
[55] = system: SNB-75 CNS
[56] = system: SR leukemia
[57] = system: T-47D breast
[58] = system: UACC-62 melanoma

Measured: TGI

Cc1ccc(C(=O)N/N=C(\N=Nc2ccccc2C(=O)O)c2ccc(N(C)C)cc2)cc1
57.7 µM: [23]
> 100 µM: [1] | [2] | [3] | [4] | [5] | [6] | [7] | [8] | [9] | [10] | [11] | [12] | [13] | [14] | [15] | [16] | [17] | [18] | [19] | [20] | [21] | [22] | [24] | [25] | [26] | [27] | [28] | [29] | [31] | [32] | [33] | [34] | [35] | [36] | [37] | [38] | [39] | [40] | [41] | [42] | [43] | [44] | [45] | [46] | [47] | [48]
99.3 µM: [30]

CCOC(=O)CN1C(=O)C(=O)N(c2ccc(OC)c3ccccc23)C1=O
> 100 µM: [1] | [2] | [49] | [3] | [4] | [5] | [6] | [50] | [7] | [8] | [9] | [10] | [11] | [51] | [14] | [16] | [17] | [18] | [19] | [52] | [20] | [22] | [23] | [24] | [25] | [26] | [28] | [29] | [30] | [31] | [32] | [33] | [34] | [35] | [53] | [36] | [37] | [38] | [39] | [40] | [41] | [54] | [42] | [43] | [55] | [56] | [44] | [57] | [45] | [46] | [47] | [58] | [48]
